Source: paper PMC11027154 (Journal of the American Chemical Society, 2024)
Bridge positions count the residues as written; N and C are the ends. Square brackets hold non-standard residues; d marks the D form. Peptide text beside a SMILES is read from it. * marks the point of attachment. X1 = C[C@@H]1NC(=O)[C@H](CC(=O)O)NC(=O)[C@@H](N)CSCc2cc3cc(c2)CSC[C@@H](C(=O)*)NC(=O)[C@H](CSC3)NC(=O)[C@H](CO)NC1=O; FITC = O=C1OC2(c3ccc(O)cc3Oc3cc(O)ccc32)c2ccc(NC(=S)*)cc21; S5 = C=CCCC[C@](C)(N)C(=O)O; βAla = NCCC(=O)O

Assays:
[1] = circular dichroism; conditions: PBS, pH 7.4, 25 °C
[2] = In vitro peptide stability in human serum; type: in vitro ADME; conditions: 25% human serum, 37 °C; for degradation behaviour in serum: up to 48 h, LC-MS
Procedure: The test compounds were separately incubated with 25% human serum at 37 °C; residual starting materials were monitored as a function of time, and degradation products were characterized using LC-MS (Figure 5c). […] Besides terminal degradation, we also observed ring-opening products by hydrolysis of amide bonds within the hydrocarbon macrocycles in two stapled peptides (Figures S28, S29).

[3] = 25 % human serum diluted in RPMI medium; conditions: 37 °C, up to 48 hours (dual 0 – 72 hours in Figure S24)
[4] = molecular target: T1, cyclin A1 with a His tag (Homo sapiens, UniProt P78396); test: Direct fluorescence polarization (FP) binding to cyclin A1; conditions: Figure 5b; FITC-labeled peptide, PBS, 3 h; read-out: FP assay for cyclin A: Kd^app
T1 construct: His; purchased Sino Biological
T1 sequence (P78396 whole entry): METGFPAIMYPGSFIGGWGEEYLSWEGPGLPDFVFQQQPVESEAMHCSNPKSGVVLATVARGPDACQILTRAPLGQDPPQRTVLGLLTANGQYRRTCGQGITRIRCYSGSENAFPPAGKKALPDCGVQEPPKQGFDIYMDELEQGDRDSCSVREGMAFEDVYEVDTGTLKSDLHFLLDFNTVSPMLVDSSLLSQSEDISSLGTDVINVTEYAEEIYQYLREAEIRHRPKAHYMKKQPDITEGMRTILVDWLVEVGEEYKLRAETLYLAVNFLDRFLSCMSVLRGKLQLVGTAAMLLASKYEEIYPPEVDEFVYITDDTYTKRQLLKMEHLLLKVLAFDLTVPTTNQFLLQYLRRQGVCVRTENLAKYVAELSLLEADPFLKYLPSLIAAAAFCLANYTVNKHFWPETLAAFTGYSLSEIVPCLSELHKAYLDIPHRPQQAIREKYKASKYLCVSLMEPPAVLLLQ

[5] = residual starting material vs time, LC-MS/HPLC, 95% confidence interval in parentheses

fragment found [3] | Molecule | degradation behaviour in serum [2] | half-life [2, 5] [h] | helicity ([1]; 5-30 uM) [MRE222] | further results
 | CC[C@H](C)[C@H](NC(=O)[C@H](C)NC(=O)[C@@H](NC(=O)[C@H](CO)NC(=O)[C@H](C)NC(C)=O)[C@@H](C)O)C(=O)N[C@@H](CCCNC(=N)N)C(=O)N[C@@]1(C)CCCC=CCCC[C@@](C)(C(=O)N[C@@H](CCCCN)C(=O)N[C@@H](CCC(=O)O)C(=O)N[C@@H](Cc2ccc(O)cc2)C(N)=O)NC(=O)[C@H](CC(C)C)NC(=O)[C@H](CO)NC(=O)[C@H]([C@@H](C)CC)NC1=O [staple-2] (Ac-ASTAIR[S5]ISL[S5]KEY-NH2; staple 7-11) | overall higher stabilities | 7 |  | helicity ([1]; 22 uM): -11100 MRE222
 | CC[C@H](C)[C@@H]1NC(=O)[C@H](C)NC(=O)[C@@](C)(NC(=O)[C@H](CO)NC(=O)[C@H](C)NC(C)=O)CCCC=CCCC[C@@](C)(C(=O)N[C@H](C(=O)N[C@@H](CO)C(=O)N[C@@H](CC(C)C)C(=O)N[C@@H](CC(C)C)C(=O)N[C@@H](CCCCN)C(=O)N[C@@H](CCC(=O)O)C(=O)N[C@@H](Cc2ccc(O)cc2)C(N)=O)[C@@H](C)CC)NC(=O)[C@H](CCCNC(=N)N)NC1=O [staple-1] (Ac-AS[S5]AIR[S5]ISLLKEY-NH2; staple 3-7) | overall higher stabilities | 5.7 |  | helicity ([1]; 17 uM): -13200 MRE222
 | CC[C@H](C)[C@H](NC(=O)[C@@H]1CSCc2cc3cc(c2)CSC[C@H](N)C(=O)N[C@@H](CC(=O)O)C(=O)N[C@@H](C)C(=O)N[C@@H](CO)C(=O)N[C@@H](CSC3)C(=O)N1)C(=O)N[C@@H](CCCNC(=N)N)C(=O)N[C@@H](CCC(=O)O)C(=O)N[C@H](C(=O)N[C@@H](CO)C(=O)N[C@@H](CC(C)C)C(=O)N[C@@H](CC(C)C)C(=O)N[C@@H](CCCCN)C(=O)N[C@@H](CCC(=O)O)C(=O)N[C@@H](Cc1ccc(O)cc1)C(N)=O)[C@@H](C)CC [BAMM] (X1-IREISLLKEY-NH2) | hydrolyzed more slowly and formed stable byproducts | 2.1 | -5590 | 
sulfoxide dual; oxidized dual, 8h | CDASCCIREISLLCEYCGC |  |  |  | 
 | CC[C@H](C)[C@H](NC(=O)[C@H](C)NC(=O)[C@@H](NC(=O)[C@H](CO)NC(=O)[C@H](C)NC(C)=O)[C@@H](C)O)C(=O)N[C@@H](CCCNC(=N)N)C(=O)N[C@@H](CCC(=O)O)C(=O)N[C@H](C(=O)N[C@@H](CO)C(=O)N[C@@H](CC(C)C)C(=O)N[C@@H](CC(C)C)C(=O)N[C@H]1CSCc2cc3cc(c2)CSC[C@H](NC(=O)[C@H](Cc2ccc(O)cc2)NC(=O)[C@H](CCC(=O)O)NC1=O)C(=O)NCC(=O)N[C@H](C(N)=O)CSC3)[C@@H](C)CC [BSM] | hydrolyzed more slowly and formed stable byproducts | 2.6 | -5000 | 
 | Ac-ASTAIREISLLKEY-NH2 |  |  | -3310 | 
 | CC[C@H](C)[C@H](NC(=O)[C@@H]1CSCc2cc3cc(c2)CSC[C@H](N)C(=O)N[C@@H](CC(=O)O)C(=O)N[C@@H](C)C(=O)N[C@@H](CO)C(=O)N[C@@H](CSC3)C(=O)N1)C(=O)N[C@@H](CCCNC(=N)N)C(=O)N[C@@H](CCC(=O)O)C(=O)N[C@H](C(=O)N[C@@H](CO)C(=O)N[C@@H](CC(C)C)C(=O)N[C@@H](CC(C)C)C(=O)N[C@H]1CSCc2cc3cc(c2)CSC[C@H](NC(=O)[C@H](Cc2ccc(O)cc2)NC(=O)[C@H](CCC(=O)O)NC1=O)C(=O)NCC(=O)N[C@H](C(N)=O)CSC3)[C@@H](C)CC [dual] | oxidation (sulfoxides, M^++16) but not proteolysis was observed |  |  | helicity ([1]; 13 uM): -11300 MRE222; t1/2 relative to staple-2 [2]: > 5.6 ×; t1/2 relative to the linear control [2]: > 49 ×; half-life (h) [2, 5]: 39.5 (>19.3) h
CEYCGC (BSM bicycle), major | Ac-ASTAIREISLLCEYCGC |  |  |  | 
 | CC[C@H](C)[C@@H]1NC(=O)[C@H](C)NC(=O)[C@@](C)(NC(=O)[C@H](CO)NC(=O)[C@H](C)NC(=O)CCNC(=O)CCNC(=O)CCNC(=S)Nc2ccc3c(c2)C(=O)OC32c3ccc(O)cc3Oc3cc(O)ccc32)CCCC=CCCC[C@@](C)(C(=O)N[C@H](C(=O)N[C@@H](CO)C(=O)N[C@@H](CC(C)C)C(=O)N[C@@H](CC(C)C)C(=O)N[C@@H](CCCCN)C(=O)N[C@@H](CCC(=O)O)C(=O)N[C@@H](Cc2ccc(O)cc2)C(N)=O)[C@@H](C)CC)NC(=O)[C@H](CCCNC(=N)N)NC1=O [staple-1-f] ({FITC-βAla-βAla-βAla}-AS[S5]AIR[S5]ISLLKEY-NH2; staple 3-7) |  |  |  | Kd [4]: 1470 ± 210 nM

Molecule | fragment found [3] | degradation behaviour in serum [2] | half-life [2, 5] [h] | helicity ([1]; 5-30 uM) [MRE222] | further results
CDASCCIREISLLKEY | CDASCCIRE (BAMM bicycle with three residues), major |  |  |  | 
